Source: US7122569B2, “Ethylene glycol esters as photoactive agents” (priority 1997, dated 2006)

Experiments:
[1] = system: CD86 (B7-2); experiment: Low-dose PDT, expression of cell surface antigens by peritoneal macrophages: CD86; type: cell-based, murine; conditions: BPD-MA 2.5 ng/ml, B-EA6 0.5 ng/ml; 690 nm LED 5 J/cm^2, 24 hr later
Protocol: (§1) In an additional assay to determine immunomodulation, murine peritoneal macrophages were isolated, purified and activated by recombinant interferon-γ (100 U/ml). […] Expression levels of MHC I, MHC II, CD54, CD80 and CD86 were determined 24 hr later using FITC conjugated antibodies and a cell sorter. The results are shown in Table 4 for B-EA6 at 0.5 ng/ml in comparison to similar experiments using BPD-MA at 2.5 ng/ml. The results in the table are given as a percent of expression as compared to cells treated with light only. As shown, BPD-MA and B-EA6 were both able to reduce expression of MHC II, but not the remaining surface markers. Thus, although B-EA6 has advantageous pharmacokinetics, it retains the immunomodulatory activity of BPD-MA and other compounds of this group.

[2] = system: L1210 cells; experiment: LD50 / photocytotoxicity on L1210 cells, 9 J/cm^2 broad spectrum light, MTT assay; type: cell-based, murine
Protocol: Either B-EA6 or BPD-MA was incubated for 1 hr with L1210 cells at a range of concentrations and exposed to 9 J/cm^2 broad spectrum light. This determination was made in the absence of serum and in the presence of 10% serum.
The ability of B-EA6 to exert a cytotoxic effect on L1210 cells in vitro was further tested by incubating the cells with B-EA6 at various concentrations for 1 hr in the absence of serum. After excess drug was removed, the cells were exposed to 9 J/cm^2 broad spectrum light (380–750 nm) and cell survival was determined by the MTT assay (Mosmann, T. et al. J Immunol Meth (1983) 65:55–63). The percentage of killed cells was calculated in reference to survival of cells exposed to light only.

[3] = system: CD80 (B7-1); experiment: Low-dose PDT, expression of cell surface antigens by peritoneal macrophages: CD80; type: cell-based, murine; conditions: BPD-MA 2.5 ng/ml, B-EA6 0.5 ng/ml; 690 nm LED 5 J/cm^2, 24 hr later
Protocol: as §1

[4] = system: splenocytes; conditions: 3 μg/ml, after an hour of incubation
Protocol: The ability of L1210 cells to accumulate B-EA6 was compared to the ability of splenocytes to do so. B-EA6 at 3 μg/ml was incubated with each cell type and the cell content of B-EA6 was determined by fluorescence in cell lysates.

[5] = In vivo pharmacokinetics, drug content of tissues by fluorescence in tissue extracts; design: species or system DBA/2 mice; conditions: 4 mg/kg intravenous
Protocol: Either BPD-MA or B-EA6 was administered by intravenous injection into DBA/2 mice at a dose of 4 mg/kg using 3 mice per time point. The drug content of plasma, skin, liver and kidney was determined by fluorescence in the tissue extracts.

[6] = system: L1210 cells; experiment: Uptake of photosensitizer by L1210 cells (fluorescence of cell lysates); type: cell-based, murine; conditions: 3 μg/ml, 10% fetal bovine serum
Protocol: BPD-MA or B-EA6 were incubated at 3 μg/ml in the presence of 10% fetal bovine serum with 10^7/mL of L1210 cells, a murine leukemia cell line. Intracellular content of the photosensitizers was measured by fluorescence of cell lysates at various times. […] The time course of uptake is shown in FIG. 2 as a percentage of cell content at 60 min by which time uptake had reached a maximum in both cases. As shown, B-EA6 is taken up more rapidly and reaches […] of its maximum concentration after only 5 min and reached its maximum uptake within 15 min.

[7] = system: M1 rhabdomyosarcoma tumors; experiment: PDT bioassay in mouse tumor model, tumor-free on day 7; type: in vivo, DBA/2 mice
Protocol: The pharmacokinetics were also determined using an in vivo mouse tumor model. Groups of 10 DBA/2 mice containing M1 rhabdomyosarcoma tumors were injected intravenously with a liposomal formulation of BPD-MA at various dosages of 0.75–1.5 mg/kg. The tumors were irradiated with 690 nm laser light at 50 or 150 J/cm^2 at various times after injection.

[8] = system: L1210 cells; experiment: Release of photosensitizer from preloaded L1210 cells; type: cell-based, murine; conditions: preloaded at 3 μg/ml for 1 hr, drug-free medium with 10% fetal bovine serum; compared with BPD-MA
Protocol: The kinetics of release of these drugs from L1210 cells was measured by preloading the cells at 3 μg/ml for 1 hr and then placing the cells in drug-free medium containing 10% fetal bovine serum. Remaining intracellular drug content was measured at various time points by lysing the cells and measuring fluorescence.

[9] = system: MHC Class II; experiment: Low-dose PDT, expression of cell surface antigens by peritoneal macrophages: MHC Class II; type: cell-based, murine; conditions: BPD-MA 2.5 ng/ml, B-EA6 0.5 ng/ml; 690 nm LED 5 J/cm^2, 24 hr later
Protocol: as §1

[10] = system: arterioles and venules; experiment: Mouse cremaster muscle model, effect on microvasculature; type: in vivo; conditions: 2 mg/kg IV, 25 J/cm^2 per 5 min
Protocol: The mouse cremaster muscle model was used. B-EA6 was administered intravenously at 2 mg/kg and starting at 5 and 15 min postinjection, surgically exposed arterioles and venules were irradiated with light at an intensity of 25 J/cm^2 per 5 min beginning at 5 min and 15 min after injection of the B-EA6. The vessels were measured as red blood column diameter as a percentage of controls.

[11] = system: DNFB-induced ear swelling; experiment: Contact hypersensitivity (CHS) assay, DNFB ear swelling; type: in vivo, Balb/C mice; conditions: 1 mg/kg liposomal IV
Protocol: Balb/C mice (5–8 mice per group) were tested using the delayed skin photosensitivity assay also called the contact hypersensitivity (CHS) assay. The mice were painted in the flank with the sensitizing agent dinitrofluorobenzene (DNFB) and 5 days later, one ear is challenged with DNFB, while the other serves as a control. The swelling is an indicator of immune response. […] The swelling in both cases was only approximately 60% of the that shown in mice without treatment.

[12] = system: adjuvant-enhanced arthritis; experiment: Arthritis model, adjuvant-enhanced, PDT on days 0, 10, 20; type: in vivo, MRL-Ipr mice; conditions: 0.5 mg/kg liposomal IV, red light 80 J/cm^2 at 1 hr
Protocol: MRL-Ipr mice spontaneously develop arthritis; this was enhanced by intradermal injection of Freund's Adjuvant. Various numbers of MRL-Ipr mice were treated with PDT on days 0, 10, and 20 after injection of the adjuvant. […] The mice were observed and symptoms scored every 5 days for 30 days. The results are shown in FIG. 6 in comparison to mice similarly treated with BPD-MA and BPD-MB.

[13] = system: CD54 (ICAM-1); experiment: Low-dose PDT, expression of cell surface antigens by peritoneal macrophages: CD54; type: cell-based, murine; conditions: BPD-MA 2.5 ng/ml, B-EA6 0.5 ng/ml; 690 nm LED 5 J/cm^2, 24 hr later
Protocol: as §1

[14] = system: M1 (rhabdomyosarcoma) tumor; experiment: Tumor selectivity of PDT in mice bearing subcutaneous M1 tumor; type: in vivo, DBA/2 mice; conditions: 0.75 mg/kg liposomal IV, 15 min, 50 J/cm^2 690 nm
Protocol: Mice were administered 0.75 mg/kg of B-EA6 in a liposomal formulation intravenously. After 15 min, a 1 cm area which included a 5 mm diameter tumor was exposed to 50 J/cm^2 of 70 mW light of 690 nm wavelength from an argon-pumped dye laser.

[15] = system: MHC Class I; experiment: Low-dose PDT, expression of cell surface antigens by peritoneal macrophages: MHC Class I; type: cell-based, murine; conditions: BPD-MA 2.5 ng/ml, B-EA6 0.5 ng/ml; 690 nm LED 5 J/cm^2, 24 hr later
Protocol: as §1

SMILES: C=Cc1c(C)c2cc3nc(cc4[nH]c(cc5nc(cc1[nH]2)C1(C)C5=CC=C(C(=O)OC)C1C(=O)OC)c(C)c4CCC(=O)OCCO)C(CCC(=O)OCCO)=C3C (centres unmarked) [B-EA6]
- CD86 (B7-2) expression, percent of cells treated with light only [1]: 92.2%
- percentage of cells that did not survive ([2]; 15 ng/ml, no serum, 9 J/cm^2 light (380–750 nm), vs light only): ~100%
- LD50, 10% serum ([2]; L1210 cells, 1 hr incubation, 9 J/cm^2 broad spectrum light, 10% serum): 19.7 ng/mL
- percentage of killed cells ([2]; approximately 7 ng/ml, no serum, 9 J/cm^2 light (380–750 nm), vs light only): 80%
- CD80 (B7-1) expression, percent of cells treated with light only [3]: 102.3%
- cell content of B-EA6 accumulated [4]: less than 20 ng/10^6 cells
- accumulation in skin ([5]; first 3 hr): does not
- T½ (15 min-3 hours) Kidney ([5]; kidney): 48 min
- T½ (15 min-3 hours) Liver ([5]; liver): 36 min
- T½ (15 min-3 hours) Muscle ([5]; muscle): 666 min
- T½ (15 min-3 hours) Plasma ([5]; plasma): 36 min
- accumulation in plasma, liver or kidney ([5]; relative to 15 min postinjection): neither BPD-MA nor B-EA6 accumulated
- T½ (15 min-3 hours) Skin ([5]; skin): 114 min
- T½ (15 min-3 hours) Spleen ([5]; spleen): 48 min
- time to maximum uptake [6]: ≤ 15 min
- maximum concentration reached (intracellular content) ([6]; 10^7/mL L1210 cells): 145.9 ng/10^6 cells
- Percent Tumor Free on Day 7 ([7]; 0.75 mg/kg liposomal IV, light 15 min post IV, 50 J/cm^2 690 nm): 50%
- Percent Tumor Free on Day 7 ([7]; 0.75 mg/kg liposomal IV, light 30 min post IV, 50 J/cm^2 690 nm): 0%
- Percent Tumor Free on Day 7 ([7]; 1.0 mg/kg liposomal IV, light 15 min post IV, 50 J/cm^2 690 nm): 90%
- Percent Tumor Free on Day 7 ([7]; 1.0 mg/kg liposomal IV, light 30 min post IV, 50 J/cm^2 690 nm): 0%
- Percent Tumor Free on Day 7 ([7]; 1.5 mg/kg liposomal IV, light 180 min post IV, 150 J/cm^2 690 nm): 0%
- initial release from cells [8]: much more rapid
- MHC Class II expression, percent of cells treated with light only [9]: 71.8%
- vessel closure ([10]; irradiation started after 15 min): permanent closure
- vessel closure ([10]; irradiation started at 5 min): transient vessel closure
- ear swelling relative to mice without treatment ([11]; 15 J/cm^2 whole body light): approximately 60%
- ear swelling relative to mice without treatment ([11]; ambient light): approximately 60%
- prevention of arthritis symptoms (incidence of clinical symptoms, bimaleolar ankle width) [12]: effective in preventing the sequellae of adjuvant injection
- CD54 (ICAM-1) expression, percent of cells treated with light only [13]: 106.9%
- effect of PDT on surrounding normal skin [14]: did not affect the surrounding normal skin
- effect of PDT on tumor [14]: effectively eliminated the tumor
- MHC Class I expression, percent of cells treated with light only [15]: 100.4%
